Experimental data published in patent US7763615B2, “Ecteinascidin analogs for use as antitumour agents” (priority 2001, dated 2010).

Experiments:
[1] = system: AML-12, normal mouse liver cells; details: 24 h
[2] = system: NRK-52E, normal rat kidney cells; details: 24 h
Description: In order to assess the cytotoxicity of the drugs to normal cells, we used 96 well plates plated at a density of 5000 cells per well (except for the FDC-P1 which were plated at 12,000 cells per well) with normal cell lines (ATCC, Table 1) maintained as per the directions of the ATCC: AML-12, normal mouse liver cells; NRK-52E, normal rat kidney cells; L8, normal rat skeletal muscle cells; FDC-P1, normal mouse myelogeous stem cells; and H9c2 (2-1), normal rat cardiac muscle cells. The cells in each plate were permitted to settle overnight before adding the test drug.
To each well (100 μl medium) 10 μl of drug in media was added at varying concentrations (1×10-10-0.01 mg/ml final concentration) and further incubated overnight at 37° C. with 5% CO2. After 24 h the following assays were performed. All experiments were repeated at least 3 times and were assayed in duplicate.
MTS assay (CellTiter 96 aqueous) was performed according to the manufacturer's (Promega) directions (for all cell types). Cell viability (mitochondrial activity) is determined via enzymatic conversion of the formazan substrate.

[3] = physchem; details: pH 7.4, log D n-Octanol-Dulbecco's PBS pH 7.4
Description: The measurement of partition coefficient was evaluated based on a miniaturized shake-flask procedure. Buffer (Dulbecco's PBS, pH 7.40) was used as the aqueous phase. The tested compound was dissolved in DMSO, at the concentration of 100 μM. The final DMSO concentration (1%.) during the octanol-buffer partitioning are very low to avoid bias on the partitioning. The amount of compound in the buffer phase was determined by HPLC with photodiode array detection after an equilibration phase of 60 min. The amount of compound in the octanol phase is calculated by subtraction of the amount of compound in buffer from the total amount of compound, which is determined from a calibration sample.
Log D is calculated as the Log10 of the amount of compound in the octanol phase divided by the amount of compound in the buffer phase. The effective range of the log D microassay is approximately −0.5 to +4.5.

SMILES: COc1c(C)cc2c(c1O)[C@@H]1C3[C@@H]4SC[C@]5(NCCc6c5[nH]c5c(C)cccc65)C(=O)COC[C@@H](c5c6c(c(C)c(OC(C)=O)c54)OCO6)N3[C@@H](O)[C@H](C2)N1C (stereo partly drawn) [Compound 36]
- Liver [1]: 3.19E−07
- Kidney [2]: 3.56E−07
- logD at 60 min [3]: > 4.4
